According to patent publication US10799456B2, “Multiple drug lipid nanoparticle composition and related methods for extended drug levels in blood and lymph tissue” (priority 2015, dated 2020):

Assays:
[1] = Drug incorporation/encapsulation (association) efficiency of multi-drug LNPs by dialysis; assay type: physicochemical; settings: for Degree of incorporation (% total): anti-HIV LNPs LPV/RTV/PMPA
Description: The anti-HIV LNP formulations contain both unbound drug and drugs bound to lipid nanoparticles. […] Drugs were quantified by LC-MS/MS using acetonitrile precipitation. Encapsulation efficiency (EE) was calculated as follows: […]

[2] = pH dependent drug release from LPV/RTV/TFV lipid nanoparticles; assay type: physicochemical; settings: 2 hrs
Description: As described above, we established the pH-dependent association of various drugs to lipids at neutral pH and the consequent release of the drugs when pH is lowered. Also described above, this stable integration and pH-dependent release of drugs from the multiple drug lipid nanoparticles was consistent for both lipophilic and water soluble compounds. To confirm the pH dependent release of the individual drugs from the multiple drug combination lipid nanoparticles, LPV/RTV/PMPA(TFV) lipid nanoparticles, assembled as described above, were subjected to different pH environments, and the free drug component of the supernatant was assayed to determine the amount of release. […] When a lipid nanoparticle is localized in tissues and taken up by HIV-infected cells, the incorporated antiretroviral drugs are then released inside the cell organelles (such as endosome and lysosomes) when the pH is lowered.

[3] = Storage stability at 4° C. (fraction of drug bound, dialysis); assay type: physicochemical
Description: To test the long-term stability, the multi-drug nanoparticles were stored under refrigeration at 4° C. and were tested for stability after a prolonged period. The lipid-drug combination particles are stable as determined by both particle size and degree of drug association (Table 12). […] Even the hydrophilic compound, which readily diffuses out of most lipid particles in a number of hours, loses a remarkably low fraction of the associated drug after 8, 12, and 17 months in storage. This exceptional stability provides a substantial advantage for translation to clinical application.

[4] = Sucrose gradient test of drug association; assay type: physicochemical; settings: 5-20% sucrose gradient, 200,000 g, 4 hr, LPV/RTV/TFV LNPs, single miscible solvent method
Description: The sucrose gradient test to determine this characteristic is described in Example 5. Briefly, the sucrose gradient test comprises subjecting the multi-drug lipid nanoparticle to a continuous 5%-20% sucrose gradient and applying a centrifugal force of 200,000 g for 4 hours. The unassociated small molecules separate and float to the less dense fractions, whereas the associated small molecule agents sediment with the stable lipid nanoparticles in the denser gradients. The relative amounts of the unassociated and associated small molecule reagents can be quantified and, thus, compared.
The sucrose gradient test centrifugation test separates any unbound drugs from multi-drug lipid nanoparticles by sedimentation of lipid-drug particles through a sucrose gradient with increasing density to strip off unbound drugs. Under these conditions, all the free drugs in solution remained at (or floated to) the top of gradient where the sucrose density is low. Specifically, using a continuous gradient of 5-20% (with 65% cushion) sucrose, the lipid-drug particle mixture was subjected to centrifugal force at 200,000 g for 4 hr. Through this process, we were able to separate bound and unbound drug fractions. […] It is noted that the observed percentage of multi drug lipid nanoparticle association for the other two drugs (LPV and RTV) are consistent with data in Table 11.

[5] = in vivo; settings: for concentration at 24 h: sc, Mean drug concentration, Plasma; for LNP/free ratio of plasma AUC 0-168: increase in total drug exposure, fold
Description: Four young adult male macaques (Macaca nemestrina, 2.9-4.0 kg) were housed and cared for by the Washington National Primate Research Center (WaNPRC) under an approved Institutional Animal Care and Use Committee protocol.
The vehicle for the first suspension was bicarbonate-buffered saline with 3% ethanol and 0.2% bovine serum albumin. The vehicle for the second suspension was bicarbonate-buffered saline with 8% DMSO and 0.1% Tween 20.
Four macaques were divided into two treatment groups (two animals per group). […] Data were normalized to the anti-HIV LNP dose for comparative analysis.
Plasma was removed, PBMCs were isolated by the density gradient method, and cells were aliquoted into pellets of approximately 2 million PBMCs each. An inguinal lymph node was surgically excised 24 h after drug administration (n=2 per treatment), LNMCs were isolated by passage through a 100-lm nylon cell strainer (Corning, Tewksbury, Mass.), and cells were aliquoted into pellets of approximately 1-2 million LNMCs each. All samples were stored at −80° C. prior to drug analysis.
Plasma concentrations of all three drugs were analyzed simultaneously by liquid chromatography-tandem mass spectrometry using a recently published method. […] Antimicrob Agents Chemother 2014; 58(5):2675-2680, incorporated herein by reference in its entirety. PBMC and LNMC pellets were lysed using 200 μl water/methanol (1:1 v/v), sonicated for 10 min, and then extracted and analyzed using the same method as cited above. Intracellular concentrations were converted to ng/ml with the assumption that each cell has a volume of 4×10^−9 ml. Alberts B, Johnson A, Lewis J, et al. Molecular Biology of the Cell, 4 ed. Garland Science, New York, 2002, incorporated herein by reference in its entirety.
Data were analyzed by paired two-tailed Student's t-test with p<0.05 considered statistically significant.

[6] = % Drug association to particles by assembly method; assay type: physicochemical
Procedure, shortened: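 Drugs and excipients (e.g., 9:1 DSPC:PEG-DSPE) dissolved in single-phase CHCl3:alcohol:water (65:35:4), dried under reduced pressure, heated above lipid phase transition (e.g., 50° C.). Hydrated with equilibrated buffered saline at that temperature for 3 hr, then size-reduced by shearing or pressurized filtration in liquid phase.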

[7] = Combination 1, lipid:LPV:RTV:TFV 115:10:5:15, large scale
[8] = Combination 2, lipid:ATZ:RTV:TFV 115:10:5:15, large scale
[9] = male, Macaca nemestrina, in vivo
[10] = male, Macaca nemestrina, in vivo, Anti-HIV LNP treatment
[11] = male, Macaca nemestrina, in vivo, Free drug treatment
[12] = plasma, listed as Tenofovir (PMPA)

Structure (SMILES)	% particle-bound [1, 7]	% particle-bound [1, 8]	Degree of incorporation (% total) ([1]; laboratory scale (0.1-0.4 ml))	% Drug released from anti-HIV nanoparticles ([2]; pH 4.0, 37° C.)	% Drug released from anti-HIV nanoparticles ([2]; pH 5.5, 37° C.)	% Drug released from anti-HIV nanoparticles ([2]; pH 6.5, 37° C.)	% Drug released from anti-HIV nanoparticles ([2]; pH 7.4, 37° C.)	Fraction of drug bound in multi-drug nanoparticles (% total) ([3]; 0 months)	Fraction of drug bound in multi-drug nanoparticles (% total) ([3]; 8 months)	Fraction of drug bound in multi-drug nanoparticles (% total) ([3]; 12 months)	Fraction of drug bound in multi-drug nanoparticles (% total) ([3]; 17 months, one batch)	% association to lipid-drug particles (bound fraction) [4]	AUC 0-8 (%) of total, LNP [5, 9]	AUC 8-168 (%) of total, LNP [5, 9]	concentration at 24 h [5, 10]	concentration at 24 h [5, 11]	% Drug Association to Particles, LNPs from mixture of dual solvent method [6]	% Drug Association to Particles, LNPs from single, miscible solvent method [6]	other results
CC(C)c1nc(CN(C)C(=O)N[C@H](C(=O)N[C@@H](Cc2ccccc2)C[C@H](O)[C@H](Cc2ccccc2)NC(=O)OCc2cncs2)C(C)C)cs1 [Ritonavir (RTV), Ritonavir]	(83.4 ± 1.4) %	(88.5 ± 3.1) %	74.2 ± 8.4%	94.9 ± 0.7%	29.0 ± 11.6%	3.2 ± 4.9%	2 ± 1%	88.30 ± 7.38%	93.01 ± 7.70%	94.91 ± 13.66%	90.50%	76%	11.3%	88.7%	164 ± 116 ng/mL	5.9 ± 9.3 ng/mL	80-100%	90-100%	Degree of incorporation (% total) ([1]; clinical scale (15-40 ml)): 90.7 ± 7.4%; AUC fraction (% of total) Anti-HIV LNP 24-168 h [5, 9]: 57.0 ± 12.5%
C[C@H](Cn1cnc2c(N)ncnc21)OCP(=O)(O)O [Tenofovir (TFV), [(2R)-1-(6-aminopurin-9-yl)propan-2-yl]oxymethylphosphonic acid]	(9.9 ± 2.9) %	(7.9 ± 1.8) %	11.8 ± 5.1%	28.7 ± 0.9%	11.2 ± 1.5%	15.9 ± 5.4%	0 ± 2%	9.32 ± 3.79%	7.72 ± 2.95%	8.79 ± 0.92%	7.30%	around 75.5%	9.1%	90.9%	3600 ± 3510 ng/mL	0.9 ± 1.1 ng/mL	7-30%	78-85%	% particle-bound ([1]; Combination 3, lipid:LPV:EFV:TFV 200:26.6:20:40, large scale): (7.9) %; stable lipid association ([1]; across drug combinations): 8-10%; Degree of incorporation (% total) ([1]; clinical scale (15-40 ml), listed as PMPA): 12%; Degree of incorporation (% total) ([1]; clinical scale (15-40 ml), listed as Tenofovir): 11.9 ± 3.0%; % association to lipid-drug particles (bound fraction) ([4]; listed as Tenofovir (TFV or PMPA)): 75.5%; AUC LNP/free ratio ([5]; 0-168 h): 7.0; Ratio comparison between treatments (LNP/free), Plasma ([5]; 24 h): 3992.8; LNP/free ratio of plasma AUC 0-168 [5]: 7.0; LNP/free ratio of plasma AUC 0-168 ([5]; listed as TFV): 7; AUC fraction (% of total) Anti-HIV LNP 0-24 h ([5]; plasma): 48.8 ± 33.7%; AUC fraction (% of total) Free drug 0-24 h ([5]; plasma): 99.9 ± 0.2%; AUC Free drug 0-168 h ([5]; plasma, sc 25/14.3/17.1 mg/kg LPV/RTV/PMPA, four animals): 56600 ± 17040 ng·h/mL; AUC fraction (% of total) Anti-HIV LNP 24-168 h ([5]; plasma, listed as PMPA): 51.2%; AUC fraction (% of total) Free drug 24-168 h ([5]; plasma, listed as PMPA): 0.1%; AUC fraction (% of total) Anti-HIV LNP 24-168 h [5, 12]: 51.2 ± 33.7%; AUC fraction (% of total) Free drug 24-168 h [5, 12]: 0.1 ± 0.2%; % association of hydrophilic drug in typical liposome ([6]; typical liposomes): 3-5%
